# Results as given in patent US7781470B2, “Aminodicarboxylic acid derivatives having pharmaceutical properties” (Bayer Schering Pharma Aktiengesellschaft, priority 1999, dated 2010).
# Counter-ions that a name gives are not always drawn.
# How the values were obtained:
# arteria saphena rings = assay: Vasal relaxant action in vitro (phenylephrin-contracted artery rings); assay type: cell-based, Rabbits; conditions: Oryctolagus cuniculus; concentration reducing phenylephrin-induced contraction by 50%; rabbit arteria saphena rings; read-out: IC50 vasorelaxant action in vitro
# Procedure: Rabbits are anaesthetized by intravenous injection of thiopental sodium […] (about 50 mg/kg) and exsanguinated. The arteria saphena is removed and divided into 3 mm wide rings. The rings are individually mounted on in each case one triangular pair of hooks, open at the end, made of 0.3 mm strong special wire (Remanium®). Under a pretension, each ring is transferred into 5 ml organ baths containing a warm, carbogen-aerated Krebs-Henseleit solution at 37° C. having the following composition (mM): NaCl: 119; KCl: 4.8; CaCl2×2H2O: 1; MgSO4×7 H2O: 1.4; KH2PO4: 1.2; NaHCO3: 25; glucose: 10; bovine serum albumin: 0.001%. The contractility is detected using Statham UC2 cells, amplified and digitalized by means of A/D converters (DAS-1802 HC, Keithley Instruments Munich), and recorded in parallel on linear recorders. Contractions are induced by addition of phenylephrin.
# After several (in general 4) control cycles, the substance to be investigated is added in each further passage in increasing dosage, and the height of the contraction achieved under the influence of the test substance is compared with the height of the contraction achieved in the last preliminary passage. From this, the concentration which is necessary in order to reduce the contraction achieved in the preliminary control by 50% ((IC50) is calculated. The standard administration volume is 5 μl. The proportion of DMSO in the bath solution corresponds to 0.1%.
# [1] = target: T1, Haem-containing sGC (recombinant soluble guanylate cyclase) (Rattus norvegicus, UniProt P20595); assay: Stimulation of recombinant soluble guanylate cyclase (sGC) in vitro, haem-containing enzyme; assay type: biochemical
# T1 construct: made in house
# T1 sequence (P20595 1-619): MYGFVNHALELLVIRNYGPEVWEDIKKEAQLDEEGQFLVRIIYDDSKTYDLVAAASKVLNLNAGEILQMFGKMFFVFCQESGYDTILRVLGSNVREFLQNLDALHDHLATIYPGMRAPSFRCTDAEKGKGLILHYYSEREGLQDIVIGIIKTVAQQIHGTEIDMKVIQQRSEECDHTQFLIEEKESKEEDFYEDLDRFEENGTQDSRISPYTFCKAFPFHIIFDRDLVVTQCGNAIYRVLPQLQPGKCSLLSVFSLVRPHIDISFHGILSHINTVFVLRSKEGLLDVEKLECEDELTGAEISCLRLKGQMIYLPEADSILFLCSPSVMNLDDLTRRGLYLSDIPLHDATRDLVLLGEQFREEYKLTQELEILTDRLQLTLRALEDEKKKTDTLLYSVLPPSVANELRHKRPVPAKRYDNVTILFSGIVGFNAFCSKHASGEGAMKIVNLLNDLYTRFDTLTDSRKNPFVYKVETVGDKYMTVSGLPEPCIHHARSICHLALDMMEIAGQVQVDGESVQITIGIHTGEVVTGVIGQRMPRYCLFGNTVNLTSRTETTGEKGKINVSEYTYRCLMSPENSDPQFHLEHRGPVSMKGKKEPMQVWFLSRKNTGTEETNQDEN
# T1 sequence (P19686 1-690 partner): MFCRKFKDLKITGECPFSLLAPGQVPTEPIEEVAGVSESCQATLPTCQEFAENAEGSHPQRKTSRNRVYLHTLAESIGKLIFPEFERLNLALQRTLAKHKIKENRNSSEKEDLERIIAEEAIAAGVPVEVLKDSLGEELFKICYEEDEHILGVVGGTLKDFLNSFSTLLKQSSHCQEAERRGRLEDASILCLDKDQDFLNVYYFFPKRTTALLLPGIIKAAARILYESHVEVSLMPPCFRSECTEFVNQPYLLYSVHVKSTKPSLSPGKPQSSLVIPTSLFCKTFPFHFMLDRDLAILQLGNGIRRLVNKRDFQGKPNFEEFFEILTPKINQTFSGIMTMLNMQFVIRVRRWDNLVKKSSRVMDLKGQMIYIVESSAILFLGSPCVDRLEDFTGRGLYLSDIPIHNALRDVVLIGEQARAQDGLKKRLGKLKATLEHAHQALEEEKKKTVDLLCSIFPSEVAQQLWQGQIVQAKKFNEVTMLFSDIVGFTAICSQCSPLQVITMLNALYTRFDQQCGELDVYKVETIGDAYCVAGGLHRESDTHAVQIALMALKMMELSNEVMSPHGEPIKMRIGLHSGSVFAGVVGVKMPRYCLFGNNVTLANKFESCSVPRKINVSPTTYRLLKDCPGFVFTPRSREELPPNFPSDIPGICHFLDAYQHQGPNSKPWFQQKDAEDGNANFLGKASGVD
# Procedure: (§1) The investigations on the stimulation of recombinant soluble guanylate cyclase (sGC) and the compounds according to the invention with and without sodium nitroprusside and with and without the haem-dependent sGC inhibitor 1H-1,2,4-oxadiazole-(4,3a)-quinoxalin-1-one (ODQ) were carried out by the method described in detail in the following literature reference: M. Hoenicka, E. M. Becker, H. Apeler, T. Sirichoke, H. Schroeder, R. Gerzer and J.-P. Stasch: Purified soluble guanylyl cyclase expressed in a baculovirus/Sf9 system: stimulation by YC-1, nitric oxide, and […]. J. Mol. Med. 77 (1999): 14-23.
# (§2) Activation of sGC by a test substance is stated as n-fold stimulation of basal activity.
# [2] = target: T2, Haem-free sGC (recombinant soluble guanylate cyclase) (Rattus norvegicus, UniProt P20595); assay: Stimulation of recombinant soluble guanylate cyclase (sGC) in vitro, haem-free enzyme; assay type: biochemical; conditions: for Stimulation (n-fold), haem-free sGC, basal: Tween 20 0.5%
# T2 construct: made in house
# T2 sequence (P20595 1-619): T1 sequence (P20595 1-619)
# T2 sequence (P19686 1-690 partner): T1 sequence (P19686 1-690 partner)
# Procedure: as §1
# Haem-free guanylate cyclase was obtained by adding Tween 20 to the sample buffer (final concentration 0.5%).
# as §2
# [3] = 0.1 μM test compound + ODQ 10 μM
# [4] = 1.0 μM test compound + ODQ 10 μM
# [5] = 10 μM test compound + ODQ 10 μM
# [6] = ODQ 10 μM, Ex. 87 concentration 0
compound,measurement,setting,value
"O=C(O)CCCCN(CCc1ccccc1OCc1ccc(CCc2ccccc2)cc1)Cc1ccc(C(=O)O)cc1 [Example 8, 4-[((4-Carboxybutyl)-{2-[(4-phenethylbenzyl)oxy]phenethyl}amino)-methyl]benzoic Acid Hydrochloride]",IC50,arteria saphena rings,0.4 nM
O=C(O)CCCCN(CCc1ccccc1OCc1ccc(Oc2ccc(Cl)cc2)cc1)Cc1ccc(C(=O)O)cc1 [Example 28],IC50,arteria saphena rings,2.8 nM
CC(C)(C)c1ccc(COc2ccccc2CCN(CCCCC(=O)O)Cc2ccc(C(=O)O)cc2)cc1 [Example 30],IC50,arteria saphena rings,17 nM
O=C(O)CCCCN(CCc1ccccc1OCc1ccc(OCc2ccccc2)cc1)Cc1ccc(C(=O)O)cc1 [Example 32],IC50,arteria saphena rings,6.5 nM
O=C(O)CCCCN(CCc1ccccc1OCc1ccc(/C=C/c2ccccc2)cc1)Cc1ccc(C(=O)O)cc1 [Example 33],IC50,arteria saphena rings,0.5 nM
C#CCOc1ccccc1CCN(CCCCC(=O)O)Cc1ccc(C(=O)O)cc1 [Example 37],IC50,arteria saphena rings,830 nM
O=C(O)CCCCCN(CCc1ccccc1OCc1ccc(-c2ccccc2)cc1)Cc1ccc(C(=O)O)cc1 [Example 56],IC50,arteria saphena rings,73 nM
O=C(O)CCCCN(CCc1ccccc1OCc1ccc(C2CCCCC2)cc1)Cc1ccc(C(=O)O)cc1 [Example 70],IC50,arteria saphena rings,0.2 nM
O=C(O)CCCCN(CCc1ccccc1OCc1ccc(-c2csc(C(F)(F)F)n2)cc1)Cc1ccc(C(=O)O)cc1 [Example 72],IC50,arteria saphena rings,29 nM
O=C(O)CCCCN(CCc1ccccc1OCc1ccc2c(c1)CCCC2)Cc1ccc(C(=O)O)cc1 [Example 76],IC50,arteria saphena rings,29 nM
O=C(O)CCCCN(CCc1ccccc1OCc1ccc(Oc2ccc(C(F)(F)F)cc2)cc1)Cc1ccc(C(=O)O)cc1 [Example 86],IC50,arteria saphena rings,0.4 nM
O=C(O)CCCCN(CCc1ccccc1OCc1ccc(-c2ccc(Cl)cc2)cc1)Cc1ccc(C(=O)O)cc1 [Example 87],IC50,arteria saphena rings,0.5 nM
same,"Stimulation (n-fold), haem-containing sGC, +ODQ (10 μM)",[1]; [3],132 n-fold
same,"Stimulation (n-fold), haem-containing sGC, +SNP (0.1 μM)",[1]; 0.1 μM test compound + SNP 0.1 μM,41 n-fold
same,"Stimulation (n-fold), haem-containing sGC, basal","[1]; 0.1 μM test compound, n-fold stimulation of basal activity",15 n-fold
same,"Stimulation (n-fold), haem-containing sGC, basal",[1]; 1.0 μM test compound,18 n-fold
same,"Stimulation (n-fold), haem-containing sGC, +ODQ (10 μM)",[1]; [4],115 n-fold
same,"Stimulation (n-fold), haem-containing sGC, +SNP (0.1 μM)",[1]; 1.0 μM test compound + SNP 0.1 μM,47 n-fold
same,"Stimulation (n-fold), haem-containing sGC, basal",[1]; 10 μM test compound,24 n-fold
same,"Stimulation (n-fold), haem-containing sGC, +ODQ (10 μM)",[1]; [5],181 n-fold
same,"Stimulation (n-fold), haem-containing sGC, +SNP (0.1 μM)",[1]; 10 μM test compound + SNP 0.1 μM,60 n-fold
same,"Stimulation (n-fold), haem-free sGC, +ODQ (10 μM)",[2]; [3],361 n-fold
same,"Stimulation (n-fold), haem-free sGC, basal",[2]; 0.1 μM test compound,353 n-fold
same,"Stimulation (n-fold), haem-free sGC, +ODQ (10 μM)",[2]; [4],457 n-fold
same,"Stimulation (n-fold), haem-free sGC, basal",[2]; 1.0 μM test compound,491 n-fold
same,"Stimulation (n-fold), haem-free sGC, +ODQ (10 μM)",[2]; [5],477 n-fold
same,"Stimulation (n-fold), haem-free sGC, basal",[2]; 10 μM test compound,529 n-fold
COc1ccc(-c2ccc(COc3ccccc3CCN(CCCCC(=O)O)Cc3ccc(C(=O)O)cc3)cc2)cc1 [Example 88],IC50,arteria saphena rings,0.4 nM
O=C(O)c1ccc(CN(CCOc2ccc(C(=O)O)cc2)CCc2ccccc2OCCCCCc2ccccc2)cc1 [Example 98],IC50,arteria saphena rings,3.4 nM
O=C(O)c1ccc(CN(CCOc2ccc(C(=O)O)cc2)CCc2ccccc2OCc2ccc(C3CCCCC3)cc2)cc1 [Example 102],IC50,arteria saphena rings,0.2 nM
CCCCCCCCOc1ccccc1CCN(CCOc1ccc(C(=O)O)cc1)Cc1ccc(C(=O)O)cc1 [Example 103],IC50,arteria saphena rings,3.9 nM
"O=c1onc2cnc3ccccc3n12 [ODQ, 1H-1,2,4-oxadiazol-(4,3a)-quinoxalin-1-one, reference compound]","Stimulation (n-fold), haem-containing sGC, ODQ alone",[1]; [6],1 n-fold
same,"Stimulation (n-fold), haem-free sGC, ODQ alone",[2]; [6],1 n-fold
